In US12577226B2, “Compounds for treating Huntington's disease” (PTC THERAPEUTICS, INC., priority 2019, dated 2026):

Test system: Endogenous Huntingtin Protein (capture with MW1 (expanded polyglutamine) or MAB2166 antibody)
Assay: Endogenous Huntingtin Protein Assay (ELISA-based Meso Scale Discovery electrochemiluminescence assay)
Format: cell-based
Settings: MSD electrochemiluminescence platform
Procedure, shortened: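 MSD electrochemiluminescence sandwich immunoassay: plates coated with 1 μg/mL MW1 or MAB2166 capture antibody, samples incubated overnight at 4 °C. Detection with rabbit monoclonal #5656S then SULFO-TAG anti-rabbit (each 0.25 μg/mL, 1 h RT).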

Row | Molecule | IC50
1 | 2-{3-[(3R)-3-(tert-butylamino)pyrrolidin-1-yl]-1,2,4-triazin-6-yl}-5-(2,8-dimethylimidazo[1,2-b]pyridazin-6-yl)pyridin-3-ol [Compound 149] | ≤ 100 nM
2 | CN(c1ncc(-c2ncc(-n3nccn3)cc2O)nn1)C1CC(C)(C)NC(C)(C)C1 [Compound 144, 2-{3-[methyl(2,2,6,6-tetramethylpiperidin-4-yl)amino]-1,2,4-triazin-6-yl}-5-(2H-1,2,3-triazol-2-yl)pyridin-3-ol] | ≤ 100 nM
3 | 2-{6-[(3R)-(tert-butylamino)pyrrolidin-1-yl]pyridazin-3-yl}-5-(1-methyl-1H-pyrazol-3-yl)pyridin-3-ol and 2-{6-[(3S)-(tert-butylamino)pyrrolidin-1-yl]pyridazin-3-yl}-5-(1-methyl-1H-pyrazol-3-yl)pyridin-3-ol [Compound 17] | 500 to 1000 nM
4 | 2-{6-[(3R,5R)-3,5-dimethylpiperazin-1-yl]pyridazin-3-yl}-5-(7-fluoro-2-methyl-2H-indazol-5-yl)pyridin-3-ol and 2-{6-[(3S,5R)-3,5-dimethylpiperazin-1-yl]pyridazin-3-yl}-5-(7-fluoro-2-methyl-2H-indazol-5-yl)pyridin-3-ol [Compound 106] | ≤ 100 nM
5 | CC1(C)CC(Oc2ccc(-c3ncc(-n4nccn4)cc3O)nn2)CC(C)(C)N1 [Compound 20, 2-{6-[(2,2,6,6-tetramethylpiperidin-4-yl)oxy]pyridazin-3-yl}-5-(2H-1,2,3-triazol-2-yl)pyridin-3-ol] | ≤ 100 nM
6 | 5-[(2-methylpyrimidin-5-yl)amino]-2-{6-[(3R)-3-(propan-2-yl)piperazin-1-yl]pyridazin-3-yl}pyridin-3-ol and 5-[(2-methylpyrimidin-5-yl)amino]-2-{6-[(3S)-3-(propan-2-yl)piperazin-1-yl]pyridazin-3-yl}pyridin-3-ol [Compound 134] | 500 to 1000 nM
7 | CC1(C)C[C@H](Oc2ccc(-c3ncc(-c4cn[nH]c4)cc3O)nn2)[C@H](F)C(C)(C)N1[O] [Compound 102, [(3R,4S)-3-fluoro-4-({6-[3-hydroxy-5-(1H-pyrazol-4-yl)pyridin-2-yl]pyridazin-3-yl}oxy)-2,2,6,6-tetramethylpiperidin-1-yl]oxidanyl] | 500 to 1000 nM
8 | [2H]C([2H])([2H])n1cc(-c2cnc(-c3ccc(N4CC[C@@H](NC(C)(C)C)C4)nn3)c(O)c2)cn1 [Compound 23, 2-{6-[(3R)-3-(tert-butylamino)pyrrolidin-1-yl]pyridazin-3-yl}-5-[1-(^2H3)methyl-1H-pyrazol-4-yl]pyridin-3-ol] | ≤ 100 nM
9 | 2-(6-{[(3R,4S)-3-fluoro-2,2,6,6-tetramethylpiperidin-4-yl]oxy}pyridazin-3-yl)-5-(4-methyl-1H-imidazol-1-yl)pyridin-3-ol and 2-(6-{[(3S,4R)-3-fluoro-2,2,6,6-tetramethylpiperidin-4-yl]oxy}pyridazin-3-yl)-5-(4-methyl-1H-imidazol-1-yl)pyridin-3-ol [Compound 41] | 100 to 500 nM
10 | [2H]C([2H])([2H])Oc1cc(-c2cnc(-c3ccc(N[C@@H]4CC(C)(C)NC(C)(C)[C@@H]4F)nn3)c(O)c2)ncn1 [Compound 25, 2-(6-{[(3R,4R)-3-fluoro-2,2,6,6-tetramethylpiperidin-4-yl]amino}pyridazin-3-yl)-5-{6-[(^2H3)methyloxy]pyrimidin-4-yl}pyridin-3-ol] | ≤ 100 nM
11 | CN(c1ncc(-c2ncc(-c3cn[nH]c3)cc2O)nn1)C1CC(C)(C)NC(C)(C)C1 [Compound 135, 2-{3-[methyl(2,2,6,6-tetramethylpiperidin-4-yl)amino]-1,2,4-triazin-6-yl}-5-(1H-pyrazol-4-yl)pyridin-3-ol] | ≤ 100 nM
12 | 2-{6-[(3S)-3-(propan-2-yl)piperazin-1-yl]pyridazin-3-yl}-5-(1H-pyrazol-4-yl)pyridin-3-ol and 2-{6-[(3R)-3-(propan-2-yl)piperazin-1-yl]pyridazin-3-yl}-5-(1H-pyrazol-4-yl)pyridin-3-ol [Compound 121] | ≤ 100 nM
13 | CC1(C)C[C@H](Oc2ccc(-c3ncc(-n4nccn4)cc3O)nn2)[C@H](F)C(C)(C)N1 (single isomer, unassigned) [Compound 11, 2-(6-{[(3R,4S)-3-fluoro-2,2,6,6-tetramethylpiperidin-4-yl]oxy}pyridazin-3-yl)-5-(2H-1,2,3-triazol-2-yl)pyridin-3-ol or 2-(6-{[(3S,4R)-3-fluoro-2,2,6,6-tetramethylpiperidin-4-yl]oxy}pyridazin-3-yl)-5-(2H-1,2,3-triazol-2-yl)pyridin-3-ol] | ≤ 100 nM
14 | C[C@@H]1CN(c2ccc(-c3ncc(/C=C/c4cnn(C)c4)cc3O)nn2)C[C@H](C)N1 [Compound 118, 2-{6-[(3R,5S)-3,5-dimethylpiperazin-1-yl]pyridazin-3-yl}-5-[(E)-2-(1-methyl-1H-pyrazol-4-yl)ethenyl]pyridin-3-ol and 2-{6-[(3S,5R)-3,5-dimethylpiperazin-1-yl]pyridazin-3-yl}-5-[(E)-2-(1-methyl-1H-pyrazol-4-yl)ethenyl]pyridin-3-ol] | ≤ 100 nM
15 | CC1(C)C[C@H](Oc2ccc(-c3ncc(-n4ccnc4)cc3O)nn2)[C@H](F)C(C)(C)N1 (single isomer, unassigned) [Compound 9, 2-(6-{[(3R,4S)-3-fluoro-2,2,6,6-tetramethylpiperidin-4-yl]oxy}pyridazin-3-yl)-5-(1H-imidazol-1-yl)pyridin-3-ol or 2-(6-{[(3S,4R)-3-fluoro-2,2,6,6-tetramethylpiperidin-4-yl]oxy}pyridazin-3-yl)-5-(1H-imidazol-1-yl)pyridin-3-ol] | 100 to 500 nM

Next, values leading:

Row | IC50 | Molecule
16 | 100 to 500 nM | Oc1cc(-n2nccn2)cnc1-c1ccc(OC2CC3(CC3)NC3(CC3)C2)nn1 (centres unmarked) [Compound 73, 2-{6-[(4-azadispiro[2.1.2^5.3^3]decan-9-yl)oxy]pyridazin-3-yl}-5-(2H-1,2,3-triazol-2-yl)pyridin-3-ol]
17 | ≤ 100 nM | Cc1cn2cc(-c3cnc(-c4ccc(N5CCC6(CCN6)C5)nn4)c(O)c3)ccc2n1 (centres unmarked) [Compound 107, 2-[6-(1,6-diazaspiro[3.4]octan-6-yl)pyridazin-3-yl]-5-(2-methylimidazo[1,2-a]pyridin-6-yl)pyridin-3-ol]
18 | 500 to 1000 nM | CC(C)C1CN(c2ccc(-c3ncc(/C=C/c4cn[nH]c4)cc3O)nn2)CCN1 (centres unmarked) [Compound 130, 2-{6-[3-(propan-2-yl)piperazin-1-yl]pyridazin-3-yl}-5-[(E)-2-(1H-pyrazol-4-yl)ethenyl]pyridin-3-ol]
19 | 100 to 500 nM | CN[C@@H]1CCN(c2ccc(-c3ncc(-c4ncco4)cc3O)nn2)C1 [Compound 80, 2-{6-[(3R)-3-(methylamino)pyrrolidin-1-yl]pyridazin-3-yl}-5-(1,3-oxazol-2-yl)pyridin-3-ol]
20 | 100 to 500 nM | CC1(C)CN(c2ccc(-c3ncc(-c4cn[nH]c4)cc3O)nn2)CC(C)(C)N1 [Compound 88, 5-(1H-pyrazol-4-yl)-2-[6-(3,3,5,5-tetramethylpiperazin-1-yl)pyridazin-3-yl]pyridin-3-ol]
21 | ≤ 100 nM | Cn1nc2cc(-c3cnc(-c4cnc(N5CCN[C@@H](C6CC6)C5)nn4)c(O)c3)cnc2n1 [Compound 157, 2-{3-[(3S)-3-cyclopropylpiperazin-1-yl]-1,2,4-triazin-6-yl}-5-(2-methyl-2H-[1,2,3]triazolo[4,5-b]pyridin-6-yl)pyridin-3-ol]
22 | ≤ 100 nM | Cc1cnc(Nc2cnc(-c3cnc(N4CCN[C@@H](C5CC5)C4)nn3)c(O)c2)cn1 [Compound 160, 2-{3-[(3S)-3-cyclopropylpiperazin-1-yl]-1,2,4-triazin-6-yl}-5-[(5-methylpyrazin-2-yl)amino]pyridin-3-ol]
23 | 100 to 500 nM | Cn1cc2cc(-c3cnc(-c4ccc(N5CCN(C6CC6)CC5)nn4)c(O)c3)cc(F)c2n1 [Compound 100, 2-[6-(4-cyclopropylpiperazin-1-yl)pyridazin-3-yl]-5-(7-fluoro-2-methyl-2H-indazol-5-yl)pyridin-3-ol]
24 | ≤ 100 nM | Cc1cnc(Nc2cnc(-c3cnc(N4CCN[C@@H](C(C)C)C4)nn3)c(O)c2)cn1 [Compound 154, 5-[(5-methylpyrazin-2-yl)amino]-2-[3-[(3S)-3-(propan-2-yl)piperazin-1-yl]-1,2,4-triazin-6-yl}pyridin-3-ol]
25 | ≤ 100 nM | CC(C)(C)NC1CCN(c2ncc(-c3ncc(-n4nccn4)cc3O)nn2)C1 (centres unmarked) [Compound 138, 2-{3-[3-(tert-butylamino)pyrrolidin-1-yl]-1,2,4-triazin-6-yl}-5-(2H-1,2,3-triazol-2-yl)pyridin-3-ol]
26 | ≤ 100 nM | C[C@H]1CN(c2ccc(-c3ncc(-c4cc(F)c5nn(C)cc5c4)cc3O)nn2)CCN1 [Compound 103, 5-(7-fluoro-2-methyl-2H-indazol-5-yl)-2-{6-[(3S)-3-methylpiperazin-1-yl]pyridazin-3-yl}pyridin-3-ol]
27 | 100 to 500 nM | CC1(C)C[C@@H](Oc2ccc(-c3ncc(-c4nc5cnccn5n4)cc3O)nn2)[C@@H](F)C(C)(C)N1.CC1(C)C[C@H](Oc2ccc(-c3ncc(-c4nc5cnccn5n4)cc3O)nn2)[C@H](F)C(C)(C)N1 (mixture of isomers) [Compound 72, 2-(6-{[(3R,4S)-3-fluoro-2,2,6,6-tetramethylpiperidin-4-yl]oxy}pyridazin-3-yl)-5-([1,2,4]triazolo[1,5-a]pyrazin-2-yl)pyridin-3-ol and 2-(6-{[(3S,4R)-3-fluoro-2,2,6,6-tetramethylpiperidin-4-yl]oxy}pyridazin-3-yl)-5-([1,2,4]triazolo[1,5-a]pyrazin-2-yl)pyridin-3-ol]
28 | 500 to 1000 nM | [2H]C([2H])([2H])n1cc(-c2cnc(-c3ccc(O[C@H]4C[C@H](C)NC5(CC5)C4)nn3)c(O)c2)cn1 [Compound 84, 2-(6-{[(5S,7S)-5-methyl-4-azaspiro[2.5]octan-7-yl]oxy}pyridazin-3-yl)-5-[1-(^2H3)methyl-1H-pyrazol-4-yl]pyridin-3-ol]
29 | ≤ 100 nM | CN[C@@H]1CCN(c2ccc(-c3ncc(-c4cnc(C)o4)cc3O)nn2)C1 [Compound 77, 2-{6-[(3R)-3-(methylamino)pyrrolidin-1-yl]pyridazin-3-yl}-5-(2-methyl-1,3-oxazol-5-yl)pyridin-3-ol]
